Reference: PubChem BioAssay (NCI)
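Method: 48-hour compound exposure of cells in 96-well plates, five concentrations, linear interpolation of endpoints. TGI is the concentration that stops growth completely.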

How the values were obtained:
Experiment in all cases: NCI tumour cell line growth inhibition, 48 h
[1] = tested on: 786-0 renal
[2] = tested on: A498 renal
[3] = tested on: A549 NSCLC
[4] = tested on: ACHN renal
[5] = tested on: BT-549 breast
[6] = tested on: CAKI-1 renal
[7] = tested on: CCRF-CEM leukemia
[8] = tested on: COLO 205 colon
[9] = tested on: DU-145 prostate
[10] = tested on: EKVX NSCLC
[11] = tested on: HCC-2998 colon
[12] = tested on: HCT-116 colon
[13] = tested on: HCT-15 colon
[14] = tested on: HL-60(TB) leukemia
[15] = tested on: HOP-62 NSCLC
[16] = tested on: HOP-92 NSCLC
[17] = tested on: HS 578T breast
[18] = tested on: HT29 colon
[19] = tested on: IGROV1 ovarian
[20] = tested on: K-562 leukemia
[21] = tested on: KM12 colon
[22] = tested on: LOX IMVI melanoma
[23] = tested on: M14 melanoma
[24] = tested on: MALME-3M melanoma
[25] = tested on: MDA-MB-231 breast
[26] = tested on: MDA-MB-435
[27] = tested on: MDA-N
[28] = tested on: MOLT-4 leukemia
[29] = tested on: NCI-H226 lung
[30] = tested on: NCI-H23 lung
[31] = tested on: NCI-H460 lung
[32] = tested on: NCI-H522 lung
[33] = tested on: NCI/ADR-RES ovarian
[34] = tested on: OVCAR-3 ovarian
[35] = tested on: OVCAR-4 ovarian
[36] = tested on: OVCAR-5 ovarian
[37] = tested on: OVCAR-8 ovarian
[38] = tested on: PC-3 prostate
[39] = tested on: RPMI-8226 leukemia
[40] = tested on: RXF 393 renal
[41] = tested on: SF-268 CNS
[42] = tested on: SF-295 CNS
[43] = tested on: SF-539 CNS
[44] = tested on: SK-MEL-2 melanoma
[45] = tested on: SK-MEL-28 melanoma
[46] = tested on: SK-MEL-5 melanoma
[47] = tested on: SK-OV-3 ovarian
[48] = tested on: SN12C renal
[49] = tested on: SNB-19 CNS
[50] = tested on: SNB-75 CNS
[51] = tested on: SR leukemia
[52] = tested on: SW-620 colon
[53] = tested on: T-47D breast
[54] = tested on: TK-10 renal
[55] = tested on: U251 CNS
[56] = tested on: UACC-257 melanoma
[57] = tested on: UACC-62 melanoma
[58] = tested on: UO-31 renal

Measured: TGI

CCOC(=O)c1c(N2CCCC2)ncn(Cc2ccccc2)c1=S
88.3 µM: [6]
> 100 µM: all other assays above
